Where two headings read alike, the source gives them in different places.
What was measured:
[1] = system: Streptococcus pyogenes C203; assay: experimental bacterial infection in mice, ED50; assay type: in vivo; conditions: doses given 1 and 5 hours postinfection, read-out: ED50 (effective dose to protect 50% of the test animals)
Method: The ester derivatives of this invention have shown in vivo antimicrobial activity against experimental bacterial infections caused by gram-positivebacteria. When two doses of test compound were administered to mice with experimental infections, the activity observed was measured as an ED50 value [effective dose in mg/kg to protect 50% of the test animals: see Warren Wick, et al., J. Bacteriol. 81, 233-235 (1961)].
^a mg/kg × 2; doses given 1 and 5 hours postinfection

[2] = system: Staphylococcus aureus X400; assay: standard agar-dilution assay, MIC; assay type: cell-based; conditions: Staphylococcus aureus X400, methicillin resistant strain
Method: (§1) The MIC's in Table III were determined by standard agar-dilutionassays. The MIC's in Table IV were obtained using a conventional broth-dilution microtiter test.
^c Methicillinresistant-strain

[3] = system: Streptococcus pneumoniae Park I; assay: standard agar-dilution assay, MIC; assay type: cell-based
Method: as §1

[4] = system: Staphylococcus aureus X1.1; assay: standard agar-dilution assay, MIC; assay type: cell-based
Method: as §1

Streptococcus Group 9960 = assay: standard agar-dilution assay, MIC; assay type: cell-based
Method: as §1

[5] = system: Staphylococcus epidermidis EPI2; assay: standard agar-dilution assay, MIC; assay type: cell-based
Method: as §1

[6] = system: Staphylococcus epidermidis EPI1; assay: standard agar-dilution assay, MIC; assay type: cell-based
Method: as §1

[7] = system: Streptococcus Group D X66; assay: standard agar-dilution assay, MIC; assay type: cell-based
Method: as §1

[8] = system: Streptococcus pyogenes C203; assay: standard agar-dilution assay, MIC; assay type: cell-based
Method: as §1

[9] = system: Staphylococcus aureus S13E; assay: standard agar-dilution assay, MIC; assay type: cell-based
Method: as §1

[10] = system: Pasteurella multocida 17E; assay: conventional broth-dilution microtiter test, MIC; assay type: cell-based; conditions: bovine isolate
Method: as §1

Mycoplasma hyorhinis = assay: conventional broth-dilution microtiter test, MIC; assay type: cell-based
Method: as §1

Staphylococcus aureus = assay: conventional broth-dilution microtiter test, MIC; assay type: cell-based
Method: as §1

Streptococcus sp. 80 = assay: conventional broth-dilution microtiter test, MIC; assay type: cell-based
Method: as §1

Mycoplasma gallisepticum = assay: conventional broth-dilution microtiter test, MIC; assay type: cell-based
Method: as §1

Mycoplasma synoviae = assay: conventional broth-dilution microtiter test, MIC; assay type: cell-based
Method: as §1

[11] = system: Pasteurella multocida 60A; assay: conventional broth-dilution microtiter test, MIC; assay type: cell-based; conditions: avian isolate
Method: as §1

[12] = system: Haemophilus influenzae Holt; assay: standard agar-dilution assay, MIC; assay type: cell-based; conditions: ampicillin sensitive strain
Method: as §1
^d Ampicillinsensitive strain

[13] = system: Staphylococcus aureus V41; assay: standard agar-dilution assay, MIC; assay type: cell-based; conditions: Staphylococcus aureus V41, penicillin resistant strain
Method: as §1
^b Penicillinresistant strain

[14] = system: Haemophilus influenzae R252; assay: standard agar-dilution assay, MIC; assay type: cell-based; conditions: Haemophilus influenzae R252, ampicillin resistant strain
Method: as §1
^e Ampicillinresistant strain

Compound: CCC1OC(=O)CC(O)C(C)C(OC2OC(C)C(OC3CC(C)(O)C(OC(C)=O)C(C)O3)C(N(C)C)C2OC(C)=O)C(CC=O)CC(C)C(=O)C=CC(C)=CC1COC(C)=O (centres unmarked) [Compound 1, 2',4",23-Tri-O-Acetyl-DMT]
- ED50 ([1]; C203, mice, oral): 179 mg/kg
- MIC (minimal inhibitory concentration) [2]: 2
- MIC (minimal inhibitory concentration) [3]: 0.125
- MIC (minimal inhibitory concentration) [4]: 1
- MIC (minimal inhibitory concentration) (Streptococcus Group 9960): 1
- MIC (minimal inhibitory concentration) [5]: 2
- MIC (minimal inhibitory concentration) [6]: 1
- MIC (minimal inhibitory concentration) [7]: 1
- MIC (minimal inhibitory concentration) [8]: 0.5
- MIC (minimal inhibitory concentration) [9]: 1
- MIC (minimal inhibitory concentration) [10]: 12.5
- MIC (minimal inhibitory concentration) (Mycoplasma hyorhinis): 1.56
- MIC (minimal inhibitory concentration) (Staphylococcus aureus): 3.12
- MIC (minimal inhibitory concentration) (Streptococcus sp. 80): 0.78
- MIC (minimal inhibitory concentration) (Mycoplasma gallisepticum): 0.39
- MIC (minimal inhibitory concentration) (Mycoplasma synoviae): 0.78
- MIC (minimal inhibitory concentration) [11]: 25
- MIC (minimal inhibitory concentration) [12]: 16
- MIC (minimal inhibitory concentration) [13]: 0.5
- MIC (minimal inhibitory concentration) [14]: 16

Compound: CCC(=O)OC1CC(=O)OC(CC)C(C)C=C(C)C=CC(=O)C(C)CC(CC=O)C(OC2OC(C)C(OC3CC(C)(O)C(OC(=O)CC)C(C)O3)C(N(C)C)C2O)C1C (centres unmarked) [Compound 25, 3,4"-Di-O-propionyl-DMOT]
- ED50 ([1]; C203, mice, oral): 36 mg/kg
- ED50 ([1]; C203, sc, mice, subcutaneous): > 30 mg/kg
- MIC (minimal inhibitory concentration) [2]: 1
- MIC (minimal inhibitory concentration) [3]: 0.25
- MIC (minimal inhibitory concentration) [4]: 0.5
- MIC (minimal inhibitory concentration) (Streptococcus Group 9960): 1
- MIC (minimal inhibitory concentration) [5]: 2
- MIC (minimal inhibitory concentration) [6]: 1
- MIC (minimal inhibitory concentration) [7]: 1
- MIC (minimal inhibitory concentration) [8]: 0.5
- MIC (minimal inhibitory concentration) [9]: 0.5
- MIC (minimal inhibitory concentration) [10]: 25
- MIC (minimal inhibitory concentration) (Mycoplasma hyorhinis): 1.56
- MIC (minimal inhibitory concentration) (Staphylococcus aureus): 1.56
- MIC (minimal inhibitory concentration) (Streptococcus sp. 80): 1.56
- MIC (minimal inhibitory concentration) (Mycoplasma gallisepticum): 0.195
- MIC (minimal inhibitory concentration) (Mycoplasma synoviae): 0.39
- MIC (minimal inhibitory concentration) [11]: 50
- MIC (minimal inhibitory concentration) [12]: 32
- MIC (minimal inhibitory concentration) [13]: 1
- MIC (minimal inhibitory concentration) [14]: 16

Compound: CCC(=O)OC1C(C)OC(OC2C(C)OC(OC3C(CC=O)CC(C)C(=O)C=CC(C)=CC(C)C(CC)OC(=O)CC(O)C3C)C(O)C2N(C)C)CC1(C)O (centres unmarked) [Compound 24, 4"-O-Propionyl-DMOT]
- ED50 ([1]; C203, mice, oral): 71 mg/kg
- ED50 ([1]; C203, sc, mice, subcutaneous): 22 mg/kg
- MIC (minimal inhibitory concentration) [2]: 0.5
- MIC (minimal inhibitory concentration) [3]: 0.125
- MIC (minimal inhibitory concentration) [4]: 0.5
- MIC (minimal inhibitory concentration) (Streptococcus Group 9960): 0.5
- MIC (minimal inhibitory concentration) [5]: 1
- MIC (minimal inhibitory concentration) [6]: 0.5
- MIC (minimal inhibitory concentration) [7]: 1
- MIC (minimal inhibitory concentration) [8]: 0.5
- MIC (minimal inhibitory concentration) [9]: 0.5
- MIC (minimal inhibitory concentration) [10]: 6.25
- MIC (minimal inhibitory concentration) (Mycoplasma hyorhinis): 3.12
- MIC (minimal inhibitory concentration) (Staphylococcus aureus): 0.78
- MIC (minimal inhibitory concentration) (Streptococcus sp. 80): 0.39
- MIC (minimal inhibitory concentration) (Mycoplasma gallisepticum): 0.097
- MIC (minimal inhibitory concentration) (Mycoplasma synoviae): 0.78
- MIC (minimal inhibitory concentration) [11]: 12.5
- MIC (minimal inhibitory concentration) [12]: 8
- MIC (minimal inhibitory concentration) [13]: 1
- MIC (minimal inhibitory concentration) [14]: 8

Compound: CCC1OC(=O)CC(O)C(C)C(OC2OC(C)C(OC3CC(C)(O)C(OC(C)=O)C(C)O3)C(N(C)C)C2O)C(CC=O)CC(C)C(=O)C=CC(C)=CC1COC(C)=O (centres unmarked) [Compound 2, 23,4"-Di-O-Acetyl-DMT]
- ED50 ([1]; C203, mice, oral): 117 mg/kg
- MIC (minimal inhibitory concentration) [2]: 1
- MIC (minimal inhibitory concentration) [3]: 0.125
- MIC (minimal inhibitory concentration) [4]: 0.5
- MIC (minimal inhibitory concentration) (Streptococcus Group 9960): 0.5
- MIC (minimal inhibitory concentration) [5]: 1
- MIC (minimal inhibitory concentration) [6]: 1
- MIC (minimal inhibitory concentration) [7]: 0.5
- MIC (minimal inhibitory concentration) [8]: 0.25
- MIC (minimal inhibitory concentration) [9]: 0.5
- MIC (minimal inhibitory concentration) [10]: 6.25
- MIC (minimal inhibitory concentration) (Mycoplasma hyorhinis): 0.78
- MIC (minimal inhibitory concentration) (Staphylococcus aureus): 0.78
- MIC (minimal inhibitory concentration) (Streptococcus sp. 80): 0.39
- MIC (minimal inhibitory concentration) (Mycoplasma gallisepticum): 0.097
- MIC (minimal inhibitory concentration) (Mycoplasma synoviae): 0.39
- MIC (minimal inhibitory concentration) [11]: 12.5
- MIC (minimal inhibitory concentration) [12]: 16
- MIC (minimal inhibitory concentration) [13]: 0.25
- MIC (minimal inhibitory concentration) [14]: 16

Compound: CCC1OC(=O)CC(O)C(C)C(OC2OC(C)C(OC3CC(C)(O)C(OC(=O)Cc4ccccc4)C(C)O3)C(N(C)C)C2O)C(CC=O)CC(C)C(=O)C=CC(C)=CC1COC(=O)Cc1ccccc1 (centres unmarked) [Compound 6, 23,4"-Di-O-Phenylacetyl-DMT]
- MIC (minimal inhibitory concentration) [2]: 1
- MIC (minimal inhibitory concentration) [3]: 0.125
- MIC (minimal inhibitory concentration) [4]: 1
- MIC (minimal inhibitory concentration) (Streptococcus Group 9960): 0.5
- MIC (minimal inhibitory concentration) [5]: 1
- MIC (minimal inhibitory concentration) [6]: 1
- MIC (minimal inhibitory concentration) [7]: 0.5
- MIC (minimal inhibitory concentration) [8]: 0.25
- MIC (minimal inhibitory concentration) [9]: 1
- MIC (minimal inhibitory concentration) [10]: 50
- MIC (minimal inhibitory concentration) (Mycoplasma hyorhinis): 0.195
- MIC (minimal inhibitory concentration) (Staphylococcus aureus): 1.56
- MIC (minimal inhibitory concentration) (Streptococcus sp. 80): 0.39
- MIC (minimal inhibitory concentration) (Mycoplasma gallisepticum): ≤ 0.048
- MIC (minimal inhibitory concentration) (Mycoplasma synoviae): 0.39
- MIC (minimal inhibitory concentration) [11]: > 50
- MIC (minimal inhibitory concentration) [12]: 64
- MIC (minimal inhibitory concentration) [13]: 1
- MIC (minimal inhibitory concentration) [14]: 64

Compound: CCC(=O)OC1CC(=O)OC(CC)C(CO)C=C(C)C=CC(=O)C(C)CC(CC=O)C(OC2OC(C)C(OC3CC(C)(O)C(OC(=O)CC)C(C)O3)C(N(C)C)C2O)C1C (centres unmarked) [Compound 17, 3,4"-Di-O-Propionyl-DMT]
- MIC (minimal inhibitory concentration) [2]: 1
- MIC (minimal inhibitory concentration) [3]: 0.06
- MIC (minimal inhibitory concentration) [4]: 0.5
- MIC (minimal inhibitory concentration) (Streptococcus Group 9960): 1
- MIC (minimal inhibitory concentration) [5]: 1
- MIC (minimal inhibitory concentration) [6]: 0.5
- MIC (minimal inhibitory concentration) [7]: 1
- MIC (minimal inhibitory concentration) [8]: 0.25
- MIC (minimal inhibitory concentration) [9]: 0.5
- MIC (minimal inhibitory concentration) [10]: 25
- MIC (minimal inhibitory concentration) (Mycoplasma hyorhinis): 3.12
- MIC (minimal inhibitory concentration) (Staphylococcus aureus): 1.56
- MIC (minimal inhibitory concentration) (Streptococcus sp. 80): 0.78
- MIC (minimal inhibitory concentration) (Mycoplasma gallisepticum): 0.097
- MIC (minimal inhibitory concentration) (Mycoplasma synoviae): 0.195
- MIC (minimal inhibitory concentration) [11]: 50
- MIC (minimal inhibitory concentration) [12]: 16
- MIC (minimal inhibitory concentration) [13]: 1
- MIC (minimal inhibitory concentration) [14]: 8

Compound: CCC(=O)OC1CC(=O)OC(CC)C(COC(=O)C(Cl)(Cl)Cl)C=C(C)C=CC(=O)C(C)CC(CC=O)C(OC2OC(C)C(OC3CC(C)(O)C(OC(=O)CC)C(C)O3)C(N(C)C)C2OC(C)=O)C1C (centres unmarked) [Compound 15, 2'-O-Acetyl-3,4"-Di-O-Propionyl-23-O-Trichloroacetyl-DMT]
- MIC (minimal inhibitory concentration) [2]: 1
- MIC (minimal inhibitory concentration) [3]: 0.06
- MIC (minimal inhibitory concentration) [4]: 0.5
- MIC (minimal inhibitory concentration) (Streptococcus Group 9960): 1
- MIC (minimal inhibitory concentration) [5]: 1
- MIC (minimal inhibitory concentration) [6]: 0.5
- MIC (minimal inhibitory concentration) [7]: 2
- MIC (minimal inhibitory concentration) [8]: 0.5
- MIC (minimal inhibitory concentration) [9]: 0.5
- MIC (minimal inhibitory concentration) [10]: 50
- MIC (minimal inhibitory concentration) (Mycoplasma hyorhinis): 3.12
- MIC (minimal inhibitory concentration) (Staphylococcus aureus): 1.56
- MIC (minimal inhibitory concentration) (Streptococcus sp. 80): 1.56
- MIC (minimal inhibitory concentration) (Mycoplasma gallisepticum): 0.39
- MIC (minimal inhibitory concentration) (Mycoplasma synoviae): 0.39
- MIC (minimal inhibitory concentration) [11]: 50
- MIC (minimal inhibitory concentration) [12]: 64
- MIC (minimal inhibitory concentration) [13]: 1
- MIC (minimal inhibitory concentration) [14]: 32

Compound: CCC(=O)OC1C(C)OC(OC2C(C)OC(OC3C(CC=O)CC(C)C(=O)C=CC(C)=CC(COC(=O)C(Cl)(Cl)Cl)C(CC)OC(=O)CC(O)C3C)C(OC(C)=O)C2N(C)C)CC1(C)O (centres unmarked) [Compound 14, 2'-O-Acetyl-4"-O-Propionyl-23-O-Trichloroacetyl-DMT]
- MIC (minimal inhibitory concentration) [2]: 2
- MIC (minimal inhibitory concentration) [3]: 0.125
- MIC (minimal inhibitory concentration) [4]: 0.5
- MIC (minimal inhibitory concentration) (Streptococcus Group 9960): 1
- MIC (minimal inhibitory concentration) [5]: 2
- MIC (minimal inhibitory concentration) [6]: 0.5
- MIC (minimal inhibitory concentration) [7]: 2
- MIC (minimal inhibitory concentration) [8]: 0.5
- MIC (minimal inhibitory concentration) [9]: 1
- MIC (minimal inhibitory concentration) [10]: 12.5
- MIC (minimal inhibitory concentration) (Mycoplasma hyorhinis): 6.25
- MIC (minimal inhibitory concentration) (Staphylococcus aureus): 1.56
- MIC (minimal inhibitory concentration) (Streptococcus sp. 80): 1.56
- MIC (minimal inhibitory concentration) (Mycoplasma gallisepticum): 0.39
- MIC (minimal inhibitory concentration) (Mycoplasma synoviae): 0.195
- MIC (minimal inhibitory concentration) [11]: 25
- MIC (minimal inhibitory concentration) [12]: 8
- MIC (minimal inhibitory concentration) [13]: 1
- MIC (minimal inhibitory concentration) [14]: 8
